Results on one compound are retold here after patent publication US20260102407A1, “TREATMENT METHODS” (priority 2020, published 2026).

The test system of one data set is VCAM-1. As to the kind of experiment: Matrigel plug assay, VCAM-1 staining. It counts as in vivo. The note with it: C57BL/6 mice; 2.5 mg/mouse; 7 days. The method, then: (§1) Matrigel plug assay. Matrigel (500 μl) containing VEGF-A165 (100 ng/ml), heparin (10U) and BT2 or BT3 (2.5 mg/mouse) or its vehicle (saline containing 0.01% DMSO and 0.5% Tween 80) was injected subcutaneously into the left flanks of male 8 week-old C57BL/6 mice. After 7d the mice were sacrificed by CO2 asphyxiation and the plugs carefully removed. Formalin-fixed paraffin embedded sections were prepared from Matrigel plugs for immunohistological assessment. Heat-induced epitope retrieval was applied to all deparaffinized sections (4 μm Superfrost slides) in citrate buffer, pH 6 for 5 min at 110° C. Immunostaining for all groups with a given antibody was performed simultaneously and development time was identical. […]
(§2) Slides were scanned using an Aperio ScanScope XT slide scanner (Leica Biosystems, Mt Waverley, Vic Australia) and images captured using ImageScope software (Leica Biosystems). Positive intraplug staining was assessed using Image-Pro Plus software (Cybernetics, Bethesda, MD) in 5-12 randomly selected fields of view for each plug photographed under 10× (CD31), 20× (VCAM-1) and 40× (FosB) objectives and expressed as integrated optical density (IOD, the product of calibrated intensity (optical density) and area, i.e. IOD=intensity (mean)×area) (Media Cybernetics) (Liu, H., et al., Sci Rep 6, 21319 (2016)). […]

The next data set deals with HMEC-1. Nature of the data set: Endothelial proliferation assay using the Countess system with Trypan Blue exclusion. It counts as cell-based, human. The note with it: 5% FBS, 0.1-0.6 μM, 24 h. Here is the method: Endothelial proliferation assay using the Countess system. HMEC-1 proliferation was assessed using a Countess II Automated Cell Counter (ThermoFisher Scientific). Briefly, HMEC-1 (3×10^5 cells/well) were seeded in a 12-well plate. Cells were serum-deprived for 24 h in MCDB131 medium which contained 10 ng/ml EGF and 1 μg/ml hydrocortisone then treated with compound (0.1-0.6 μM) in medium containing 5% FBS, 10 ng/ml EGF and 1 μg/ml hydrocortisone. The cells were trypsinized after 24 h, resuspended in complete medium, a 10 μl aliquot was combined with an equal volume of […], and total cell numbers and Trypan Blue-excluding cells as a proportion of total was determined using the Countess.

Another data set has as its system c-Fos. As to the kind of experiment: Western blot, serum-inducible c-Fos expression in HMEC-1. The format is cell-based, human. The note with it: 30 μM compound, 10% FBS 1 h. The method, then: Western blot analysis with extracts of cells treated with serum. HMEC-1 (80-90% confluency) were arrested in serum-free MCDB131 medium without EGF or hydrocortisone for 20 h. Cells were treated with 30 μM compound in serum-free MCDB131 medium for 4 h, and the medium was changed to complete medium (with 10% FBS with EGF and hydrocortisone) with 30 μM compound for 1 h. Total protein was harvested as previously described in radioimmunoprecipitation (RIPA) lysis buffer with protease inhibitors (Li, Y., et al., Int J Cardiol 220, 185-191 (2016)). Proteins were resolved on 4-20% (w/v) sodium dodecyl sulfate (SDS)-polyacrylamide gradient gels (Bio-Rad Mini-PROTEAN TGX) and transferred to Immobilon-P PVDF membranes (Millipore, USA). Membranes were blocked with 5% skim milk and incubated with rabbit monoclonal FosB (cat. 2251, 1:1000, Cell Signaling, USA), rabbit monoclonal c-Fos antibodies (cat. 2250, 1:1000, Cell Signaling, USA) at 4° C. overnight or mouse monoclonal […] antibodies (cat. A5316, 1:30000, Sigma-Aldrich) at 22° C. for 15 min then incubated with a horseradish peroxidase conjugated secondary goat anti-rabbit (cat. P0448, 1:1000, DAKO Cytomation, Denmark) or goat anti-mouse (cat. P0447, 1:1000, DAKO Cytomation, Denmark) antibodies for 1 h. Chemiluminescence was detected using the Western Lightning Chemiluminescence system (PerkinElmer, USA) and ImageQuant™ LAS 4000 biomolecular imager (GE Healthcare Life Sciences, USA). Band intensity in images generated with the LAS 4000 on automatic exposure with sensitivity/resolution setting high was quantified using NIH ImageJ.

Data set [1] concerns THP-1 transendothelial migration. As to the kind of experiment: Monocyte-transendothelial migration assay toward MCP-1. The format is cell-based, human. The settings on record: HMEC; 20 ng/ml IL-1β; 24 h. Here is the method: Monocyte-transendothelial migration assay. Millicell 8 μm polycarbonated culture plate inserts (Millipore) were coated with 0.1% porcine gelatin type A (Sigma) and then placed into 24-well plates. HMEC (5×10^4 cells/well) were seeded onto the insert and allowed to adhere overnight. Cells were then serum deprived for 24 h and treated with various compound treatments for 1 h. IL-1β (20 ng/ml) was added to stimulate the cells for 4 h and 500 μl of serum-free medium was added to the bottom of the 24-well plate along with the compound. THP-1 (5×10^5 cells in 100 μl) were added into the insert and 100 ng/ml MCP-1 (Sigma) was added to the lower well. After 24 h, the number of cells that had migrated though the endothelial layer was assessed by counting 100 μl of the suspension in the lower chamber using a Coulter cell counter (Beckman Coulter).

In a further data set the test system is FosB. As to the kind of experiment: Matrigel plug assay, FosB staining. The format is in vivo. The settings on record: C57BL/6 mice; 2.5 mg/mouse; 7 days. The method, then:
as §1, §2

In a further data set the test system is rabbits. As to the kind of experiment: GLP ocular tolerance study, single intravitreal injection. The format is in vivo, rabbit. The note with it: single intravitreal injection 10 μg/50 μl, after 28 days.

The structures appear in SMILES notation.

For the compound `CCOC(=O)Nc1ccc2c(c1)C(=O)N(CC)c1ccccc1O2` [BT2, (10-ethyl-11-oxo-10,11-dihydro-dibenzo[b,f][1,4]oxazepin-2-yl)-carbamic acid ethyl ester], the “VCAM-1 immunoreactivity in Matrigel plugs” value in the data set on VCAM-1 was “inhibited”. Moreover, in the data set on HMEC-1, the “Trypan Blue incorporation (% living cells)” value is reported as “without affecting Trypan Blue incorporation” and the “serum-inducible proliferation, total cell numbers (Countess)” value is “inhibited serum-inducible proliferation”. The “serum-inducible c-Fos expression (Western blot)” value with c-Fos is on record as “blocked the inducible expression of c-Fos”. The “transendothelial migration of THP-1 monocytes toward MCP-1” value in data set [1] is reported as “inhibits the transendothelial migration”. In the data set with FosB, the “FosB immunoreactivity in Matrigel plugs” value was “inhibited”. For the same compound, the ocular tolerance result in the data set on rabbits was “well tolerated macroscopically and histologically”.
